pEC50, pIC50: −log10 of the molar value.
Tests used:
[1] = tested on: WSU-DLCL2 DLBCL xenograft tumors; assay: WSU-DLCL2 (DLBCL) xenograft model; format: in vivo, female SCID mice; settings: 5 days on 2 days off for 3 weeks, single agent
Description: Female 6- to 8-weeks-old CB17 SCID mice were obtained from Charles River Laboratories. Mice were housed in a barrier facility in micro-isolator cages at 10 animals per cage. Mice were fed with Harlan-Teklad LM-485 Mouse/Rat Sterilizable Diet and autoclaved water ad libitum and maintained on a 12 hours light-dark cycle. Animals were acclimatized to the animal housing facility for a period of 7 days before the beginning of the experiment. All animal studies were performed under protocols approved by Institutional Animal Care and Use Committees.
Suspensions of Compound 1 were pared in aqueous 0.5% Methyl Cellulose, 0.25% Tween 80 and 50 mM Citrate pH 3. The formulations were homogenized using a Teflon pestle and mortar (Potter-Elvehjem tissue grinder). For multiday studies, the compound was freshly formulated every day. Compound 1 and vehicle were administered by oral gavage. Rituximab was diluted in 0.9% saline and administered intraperitoneally.
Tumor cells were injected subcutaneously in the flank region above the right hind legs of female CB17 SCID mice. When the tumor volumes reach to approximately 200 mm^3, mice bearing tumors of 150-300 mm^3 were randomly assigned to receive oral doses of vehicle, Compound 1, rituximab or combination of Compound 1 (5 days on and 2 days off for 3 weeks) and rituximab (twice a week) for the duration of the study. Tumor volumes were determined before the initiation of treatment and were considered as the starting volumes. Tumors were measured twice a week for the duration of the study. The long and short axes of each tumor were measured using a digital caliper in millimeters. The tumor volumes were calculated using the formula: width^2×length/2. The tumor volumes were expressed in cubic millimeters (mm^3).
Xenograft data are expressed as mean±SEM. Statistical analyses were performed using GraphPad Prism. […]
Xenograft study was conducted with female SCID mice bearing WSU-DLCL2 DLBCL xenograft tumors. […] Tumors were measured twice a week using calipers and tumor volumes were calculated using the formula of W^2×L/2. […]

WSU-DLCL2 Parental = assay: Viability/apoptosis flow cytometry assay, DLBCL cell lines with acquired resistance to doxorubicin and parental lines; format: cell-based
Description: (§1) The following exemplary anti-proliferative assay uses exemplary DLBCL cell lines with acquired resistance to doxorubicin (Table 7). The in vitro growth inhibitory activity of Compound described herein was evaluated using a 384-well flow cytometry assay. The activity of Compound 1 was also evaluated in cell lines with acquired resistance to doxorubicin (one of the curative agents in the DLBCL standard of care regimen R-CHOP [rituximab, cyclophosphamide, doxorubicin, vincristine, and prednisone]) (Table 7).
(§2) The cell lines in Table 7 were plated in 96-well flat bottom plates and assessed with increasing concentrations of compound ranging from 0.0015 to 10 μM or dimethyl sulfoxide (DMSO) control. The final concentration of DMSO was 0.1% (v/v). Following the addition of Compound 1 or DMSO and incubation for 120 hours, cell number and cell death were analyzed by flow cytometry (Attune®, Thermo Fisher) using Annexin V and the vital dye, 7-AAD. Phosphatidylserine translocates from the inner layer to the outer layer of the cell membrane early in apoptosis and Annexin V binds to the exposed phosphatidylserine found on the surface of an apoptotic cell. The dye 7-AAD is excluded by intact live cells and only stains cells that have died as a result of apoptosis or necrosis.
(§3) Flow cytometry data analysis was then performed using the Flow Jo_v10 software to determine the number of viable cells (Annexin V and 7-AAD double negative staining cells) and percentage of apoptotic cells (Annexin V positive cells) for each condition. The live cell count for every concentration was normalized to the DMSO control (considered as 100%) to calculate the percentage of viable cells remaining after treatment and graphed using GraphPad Prism 7.03. The IC50 (50% inhibitory concentration) and Emax (maximum efficacy eliminating tumor cells achieved) values were then calculated by performing nonlinear regression curve fitting using log(inhibitor) vs. normalized response—variable slope analysis on GraphPad Prism 7.03. Area under the curve (AUC) was calculated by performing area under curve analysis on GraphPad Prism 7.03. Similarly, for apoptosis analysis, the percentage of apoptosis combining both “early” (Annexin V positive and 7-AAD negative) and “late” apoptosis (Annexin V and 7-AAD positive) cell gates relative to DMSO was graphed using GraphPad Prism 7.03. The AUC, EC50 (concentration of Compound 1 that produces half-maximal apoptosis response) and Ymax (maximal percentage of apoptosis achieved) values from apoptosis curves were calculated by performing area under curve analysis and nonlinear regression curve fitting using log(agonist) vs. normalized response—Variable slope analysis on GraphPad Prism 7.03.
(§4) In Table 8, dose-response proliferation curves for the cell lines with acquired resistance to doxorubicin and non-linear curve-fit regression were used to determine IC50, AUC, and Emax for % viable cells (Emax for viability varies between 100 at low doses and 0 at high doses, which corresponds to inhibition of all viable cells), and dose-response apoptosis curves were used to determine the EC50, AUC, and Ymax for % apoptosis (Ymax for apoptosis varies from 0 at low doses and 100 at higher doses which corresponds to death of all cells). Tumor cells were exposed to serial dilutions (0.00015 to 10 μM) of Compound 1 or dimethyl sulfoxide (DMSO) control for 5 days. Viability and apoptosis for all cell lines was determined by Annexin V/7-aminoactinomycin D (7-AAD) flow cytometry.

U2932 Parental = assay: as above; format: cell-based; settings: 120 hours
Description: as §1, §2, §3, §4

O=C1CC[C@H](N2C(=O)c3cccc(NCc4ccc(CN5CC(N6CCOCC6)C5)cc4F)c3C2=O)C(=O)N1 [Compound 1, (S)-2-(2,6-dioxopiperidin-3-yl)-4-((2-fluoro-4-((3-morpholinoazetidin-1-yl)methyl)benzyl)amino)isoindoline-1,3-dione]
tumor volume reduction ([1]; Compound 1 1 mg/kg oral): 74% | tumor volume reduction ([1]; Compound 1 3 mg/kg oral): 86% | AUC (% Viable Cells) (WSU-DLCL2 Parental; 120 hours): 166.7 | AUC (Apoptosis) (WSU-DLCL2 Parental; 120 hours): 51 | Emax (% Viable Cells) (WSU-DLCL2 Parental; 120 hours): 28% | Ymax (Apoptosis) (WSU-DLCL2 Parental; 120 hours): 29.5% | pEC50 (WSU-DLCL2 Parental; Homo sapiens, WSUDLCL2, 120 hours): 6.49 | pIC50 (WSU-DLCL2 Parental; Homo sapiens, WSUDLCL2, 120 hours, read-out: IC50 (% Viable Cells)): 8.00 | AUC (% Viable Cells) (U2932 Parental): 193 | AUC (Apoptosis) (U2932 Parental): 45.5 | Emax (% Viable Cells) (U2932 Parental): 28.4% | Ymax (Apoptosis) (U2932 Parental): 30% | pEC50 (U2932 Parental; Homo sapiens): 6.36 | pIC50 (U2932 Parental; Homo sapiens, read-out: IC50 (% Viable Cells)): 7.52

From patent US11390617B2, “Methods of treating non-Hodgkin lymphoma using 2-(2,6-dioxopiperidin-3-yl)-4-((2-fluoro-4-((3-morpholinoazetidin-1-yl)methyl)benzyl)amino)isoindoline-1,3-dione” (Celgene Corporation, priority 2019, dated 2022)
